Experimental data reported in ChEMBL document CHEMBL4732126, “Design, synthesis, and biodistribution studies of new analogues of marine alkaloids: Potent in vitro and in vivo fungicidal agents against Candida spp” (Eur J Med Chem, 2021).
Calls of active or inactive are those of the source. The calls are words filed in the database; no cut-off is given here.

Experiments:
Candida tropicalis [1] = experiment: Antifungal activity against Candida tropicalis ATCC 28707 assessed as reduction in fungal growth incubated for 48 hrs in presence of ergosterol by broth microdilution method; format: functional
Candida albicans [2] = experiment: In vivo antifungal activity in Swiss mouse infected with Candida albicans ATCC 10231 assessed as reduction in fungal load in liver at 1 mg/kg, ip administered at 2, 24 and 48 hrs post-infection and measured per gm of organ at 24 hrs post-last dose (reference value: 1.80); format: functional; settings: time 72 hrs
[3] = Toxicity in Swiss mouse assessed as effect on spleen at 0.5 to 10 mg/kg, ip measured after 24 hrs by macroscopic analysis; format: organism-based; settings: in vivo, dose 0.5-10 mg/kg
Nakaseomyces glabratus [4] = experiment: Antifungal activity against Candida glabrata ATCC 2001 assessed as reduction in fungal growth incubated for 48 hrs in presence of ergosterol by broth microdilution method; format: functional
Nakaseomyces glabratus [5] = experiment: Antifungal activity against Candida glabrata ATCC 2001 assessed as reduction in fungal growth incubated for 48 hrs in presence of sorbitol by broth microdilution method; format: functional
[6] = Toxicity in Swiss mouse assessed as relative heart weight at 10 mg/kg, ip measured after 24 hrs (reference value: 4.75 +/- 0.60 g); format: organism-based; settings: in vivo
Pichia kudriavzevii = experiment: Antifungal activity against Candida krusei ATCC 34135 assessed as reduction in fungal growth incubated for 48 hrs in presence of sorbitol by broth microdilution method; format: functional
Candida albicans [7] = experiment: Fungicidal activity against Candida albicans ATCC 10231 assessed as reduction in fungal load at 7.8 ug/ml incubated for 4 hrs followed by inoculation on SD agar plate for 48 hrs by time-kill assay; format: functional; settings: dose 7.8 µg/ml; time 52 hrs
Candida albicans [8] = experiment: Antibiofilm activity against Candida albicans ATCC 10231 assessed as reduction in biofilm formation at 0.24 to 7.81 ug/ml by crystal violet staining based spectrophotometric analysis; format: functional, organism-based; settings: dose 0.24-7.81 µg/ml
Candida albicans [9] = experiment: Fungicidal activity against Candida albicans ATCC 10231 assessed as reduction in fungal load at 7.8 to 15.6 ug/ml incubated for 8 hrs followed by inoculation on SD agar plate for 48 hrs by time-kill assay; format: functional, organism-based; settings: dose 7.8-15.6 µg/ml, time 56.0 hrs
[10] = Toxicity in Swiss mouse assessed as relative lung weight at 1 mg/kg, ip measured after 24 hrs (reference value: 6.35 +/- 0.68 g); format: organism-based; settings: in vivo
[11] = Toxicity in Swiss mouse assessed as relative spleen weight at 0.5 mg/kg, ip measured after 24 hrs (reference value: 4.02 +/- 0.59 g); format: organism-based; settings: in vivo
Candida tropicalis [12] = experiment: Antifungal activity against Candida tropicalis ATCC 28707 assessed as reduction in fungal growth incubated for 48 hrs in presence of sorbitol by broth microdilution method; format: functional
[13] = Toxicity in Swiss mouse assessed as ataxia at 20 mg/kg, ip measured after 30 mins; format: organism-based; settings: in vivo, 0.5 h
[14] = Toxicity in Swiss mouse assessed as effect on lung at 0.5 to 10 mg/kg, ip measured after 24 hrs by macroscopic analysis; format: organism-based; settings: in vivo, dose 0.5-10 mg/kg
Candida albicans [15] = experiment: Antifungal activity against Candida albicans isolate 8 assessed as reduction in fungal growth incubated for 48 hrs by broth microdilution method; format: functional
Nakaseomyces glabratus [16] = experiment: Disruption of cell membrane in Candida glabrata ATCC 2001 assessed as increase in intracellular leakage at MIC incubated for 24 hrs by UV spectrophotometric analysis; format: cell-based
[17] = Toxicity in Swiss mouse assessed as signs of toxicity at 0.5 to 10 mg/kg, ip measured upto 4 hrs; format: organism-based; settings: in vivo, dose 0.5-10 mg/kg
[18] = Toxicity in Swiss mouse assessed as relative heart weight at 1 mg/kg, ip measured after 24 hrs (reference value: 4.75 +/- 0.60 g); format: organism-based; settings: in vivo
Candida albicans [19] = experiment: Fungicidal activity against Candida albicans isolate 2 assessed as fungal killing incubated for 48 hrs followed by plating on SD agar plate; format: functional; settings: read-out: MFC99.9
Nakaseomyces glabratus [20] = experiment: Fungicidal activity against Candida glabrata ATCC 2001 assessed as fungal killing incubated for 48 hrs followed by plating on SD agar plate; format: functional; settings: read-out: MFC99.9
[21] = Toxicity in Swiss mouse infected with Candida albicans ATCC 10231 assessed as effect on spleen weight at 10 mg/kg, ip administered at 2, 24 and 48 hrs post-infection and measured at 24 hrs after last dose; format: organism-based; settings: in vivo, 72 h
[22] = Toxicity in Swiss mouse assessed as relative lung weight at 10 mg/kg, ip measured after 24 hrs (reference value: 6.35 +/- 0.68 g); format: organism-based; settings: in vivo
Candida albicans [23] = experiment: In vivo antifungal activity in Swiss mouse infected with Candida albicans ATCC 10231 assessed as reduction in fungal load in spleen at 1 mg/kg, ip administered at 2, 24 and 48 hrs post-infection and measured per gm of organ at 24 hrs post-last dose (reference value: 2.34); format: functional; settings: time 72 hrs
[24] = Toxicity in Swiss mouse assessed as effect on kidney at 0.5 to 10 mg/kg, ip measured after 24 hrs by macroscopic analysis; format: organism-based; settings: in vivo, dose 0.5-10 mg/kg
[25] = Toxicity in Swiss mouse assessed as effect on liver at 0.5 to 10 mg/kg, ip measured after 24 hrs by macroscopic analysis; format: organism-based; settings: in vivo, dose 0.5-10 mg/kg
Candida albicans [26] = experiment: In vivo antifungal activity in Swiss mouse infected with Candida albicans ATCC 10231 assessed as reduction in fungal load in spleen at 0.5 mg/kg, ip administered at 2, 24 and 48 hrs post-infection and measured per gm of organ at 24 hrs post-last dose (reference value: 2.34); format: functional; settings: time 72 hrs
[27] = Toxicity in Swiss mouse assessed as relative liver weight at 20 mg/kg, ip measured after 24 hrs (reference value: 49.42 +/- 7.17 g); format: organism-based; settings: in vivo
Candida albicans [28] = experiment: Antifungal activity against Candida albicans isolate 1 assessed as reduction in fungal growth incubated for 48 hrs by broth microdilution method; format: functional
Candida albicans [29] = experiment: Fungicidal activity against Candida albicans isolate 9 assessed as fungal killing incubated for 48 hrs followed by plating on SD agar plate; format: functional; settings: read-out: MFC99.9
[30] = Toxicity in Swiss mouse assessed as relative lung weight at 0.5 mg/kg, ip measured after 24 hrs (reference value: 6.35 +/- 0.68 g); format: organism-based; settings: in vivo
Candida albicans [31] = experiment: Fungicidal activity against Candida albicans isolate 5 assessed as fungal killing incubated for 48 hrs followed by plating on SD agar plate; format: functional; settings: read-out: MFC99.9
[32] = Toxicity in Swiss mouse assessed as relative heart weight at 3 mg/kg, ip measured after 24 hrs (reference value: 4.75 +/- 0.60 g); format: organism-based; settings: in vivo
[33] = Toxicity in Swiss mouse infected with Candida albicans ATCC 10231 assessed as effect on body weight at 0.5 to 1 mg/kg, ip administered at 2, 24 and 48 hrs post-infection and measured at 24 hrs after last dose; format: organism-based; settings: in vivo, 72 h, dose 0.5-1 mg/kg
[34] = Toxicity in Swiss mouse assessed as body weight at 0.5 mg/kg, ip measured after 24 hrs (reference value: 36.25 +/- 0.31 g); format: organism-based; settings: in vivo

[Cl-].[N-]=[N+]=NCCCCCCCCCCCCOCCCc1ccc[n+](Cc2ccccc2)c1
MIC (Candida tropicalis [1]): 15.6 µg/mL
Activity (Candida albicans [2]): 1.78 log10CFU
Activity [3]: Non-Toxic
MIC (Nakaseomyces glabratus [4]): 7.8 µg/mL
MIC (Nakaseomyces glabratus [5]): 7.8 µg/mL
Activity [6]: 4.95 g
MIC (Pichia kudriavzevii): 3.9 µg/mL
log(activity) (Candida albicans [7]): 3
Activity (Candida albicans [8]): Active
Activity (Candida albicans [9]): Active
Activity [10]: 5.33 g
Activity [11]: 3.85 g
MIC (Candida tropicalis [12]): 7.8 µg/mL
Activity [13]: Toxic
Activity [14]: Non-Toxic
MIC (Candida albicans [15]): 3.9 µg/mL
Activity (Nakaseomyces glabratus [16]): Active
Activity [17]: Non-Toxic
Activity [18]: 5.39 g
MFC (Candida albicans [19]): 7.8 µg/mL
MFC (Nakaseomyces glabratus [20]): 7.8 µg/mL
Activity [21]: Non-Toxic
Activity [22]: 6.01 g
Activity (Candida albicans [23]): 0 log10CFU
Activity [24]: Non-Toxic
Activity [25]: Non-Toxic
Activity (Candida albicans [26]): 0 log10CFU
Activity [27]: 45 g
MIC (Candida albicans [28]): 7.8 µg/mL
MFC (Candida albicans [29]): 31.2 µg/mL
Activity [30]: 5.57 g
MFC (Candida albicans [31]): 7.8 µg/mL
Activity [32]: 4.45 g
Activity [33]: Non-Toxic
Activity [34]: 37.37 g
